We go through one compound from US20220162610A1, “NOVEL RNA TRANSCRIPT” (PTC Therapeutics, Inc., priority 2020, published 2022).

One series relates to HTT protein. As to the kind of experiment: Phase 1 study, HTT protein in blood of healthy volunteers (MAD). It counts as in vivo, human. Conditions: after 21 days of treatment (MAD). The text has this:
(§1) The multiple ascending (MAD) part of the study was randomized, double-blind, and placebo controlled in healthy male and female subjects. Up to five regimens are planned to be tested in up to 5 cohorts of 8 subjects each (Cohort 2.1 to 2.5). Within each cohort, 6 subjects were to receive Compound 1 and 2 subjects were to receive placebo. Subjects in Cohort 2.1 and 2.2 were to be dosed for 14 days, subjects in Cohort 2.3 to 2.5 were to be dosed for up to 21 days.
In untreated cells, there is a steady state level of mRNA and protein because the amount of mRNA or protein being synthesized matches the amount that is being degraded, so that the mRNA and protein levels are the same over time. The addition of Compound 1 triggers the inclusion of the HTT pseudoexon into the transcript which results in the rapid decay of the HTT mRNA and a reduction of HTT mRNA to […]. […] In this example, ˜50% of newly synthesized mRNA was inhibited. Of the HTT mRNA synthesized prior to treatment, about 50% is degraded after 24 hours. The HTT protein level depends on how much mRNA is produced. Thus, a reduction by 50% would cause a 50% reduction of the HTT protein. […] Changes in HTT protein levels were assessed in MAD cohort over a longer period of time. Accordingly, healthy subjects were treated for 21 days before the amount of HTT mRNA and protein was measured in blood samples taken from each subject. […]

Series [1] in a line: Phase 1 study, safety and tolerability in healthy subjects. It counts as in vivo, human. Here is the method: The study was monitored by a Safety Review Committee (SRC). […] Safety and tolerability were assessed by the SRC between each cohort prior to ascending from one dose level to the next higher dose level in Part 1 (single ascending dose [SAD]) and Part 2 (multiple ascending dose [MAD]), and prior to initiating Part 3 (CSF), Part 4 (FE), and Part 5.
Change from baseline to each scheduled time point up to EOS for vital signs; Change from baseline to each scheduled time point up to EOS for ECG parameters; Change from baseline to each scheduled time point up to EOS for clinical laboratory tests; Changes from baseline in C-SSRS scores (Part 2, Part 3, and Part 5 only); Treatment-emergent adverse events (AEs) up to EOS; Treatment-emergent AEs leading to premature discontinuation of study drug; Treatment-emergent serious adverse events (SAEs) up to EOS; and, Abnormalities in physical examination.

Another series can be described thus: Rat toxicology, NOAEL. The following applies: male, in vivo. Here is the method:
The initial dose in the first cohort was ≤ 1/10 of the human equivalent dose (HED) estimated from the NOAEL (no observed adverse effect level) of the (male) rat, which is the most sensitive species, following the FDA guidance on the maximum recommended starting dose (MRSD) and EMA guidelines. The NOAEL of the rat is 6 mg/kg. […] The HED of 0.97 mg/kg was calculated; this scaled in a 70 kg human to 68 mg. Adjusting this dose to 1/10, the dose of the first cohort was 6.8; the actual administered dose will be 5 mg.

The nature of series [2]: Phase 1 study, pharmacokinetics in plasma and CSF, food effect. It counts as in vivo, human. The text has this: The concentrations of Compound 1 in plasma and CSF were to be assessed in an open-label design in healthy male and female subjects. A single dose of Compound 1 was to be administered daily for 7 days in 1 cohort of 6 subjects (Cohort 3.1). The dose level of Part 3 was to be determined based upon a review of the safety, tolerability, and PK data of Part 1 and Part 2 of the study. While the MAD dose was to be determined further in development, that dose and schedule was to be applied to this part of the study.
Eligibility was to be assessed during a screening period of up to 28 days. Subjects were to check into the clinic 1 day before dosing (Day −1). On the morning of Day 1 to Day 7, Compound 1 was to be orally administered after an overnight fast of at least 10 hours each day. Serial sampling of CSF and sampling of plasma for drug concentrations was to be performed on Day 7. The exact timing of the CSF and blood samples was to be determined based on the results of Part 1 and Part 2. […]
The food effect (FE) part was a parallel, open-label part in healthy male and female subjects in up to 3 cohorts of 6 subjects each. […] The dose levels for this part were to be chosen based upon a review of available safety, tolerability and PK data as determined in Part 1 and Part 2.

Series [3] concerns HTT mRNA. Briefly: PK-PD compartment model and decay-rate modelling of HTT mRNA and protein lowering. Set-up: species or system human. An excerpt: (§2) HTT mRNA reaches steady state after approximately 5 days. For HTT protein, the half-life was estimated to be 5-7 days and consequently HTT protein steady state levels would only be attained about 6 weeks from the beginning of treatment.
(§3) A target 30% to 50% decrease in mHTT is the range associated with decreased pathology and anticipated therapeutic benefit in patients. In the Phase 1 study, Compound 1-mediated HTT pre-mRNA splicing was dose dependent across all cohorts in both the SAD and MAD portions of the study. Mean decreases in full-length HTT mRNA levels of 40% and 60% were observed after 14 days of treatment with Compound 1 at 15 mg and 30 mg, respectively. On the basis of these clinical data, a PK-PD compartment model was used to simulate percentage of mRNA decreases (and thus the anticipated magnitude of HTT protein lowering) at additional potential clinical doses.

Assay in series [4]: as above
Conditions: 30 mg daily dose, model based on half-life. Set-up: species or system human.
Source text: as §2, §3

Series [5] relates to HTT mRNA. Briefly: Phase 1 study, HTT mRNA in whole blood of healthy volunteers. The following applies: for Mean decrease in full-length HTT mRNA levels: after 14 days of treatment (MAD). It counts as in vivo, human. As for the experimental part: The Phase 1 study was conducted in 5 parts: single ascending doses (SAD)(Part 1), multiple ascending doses (MAD)(Part 2), CSF and blood sampling after 7 days of Compound 1 administration (Part 3), food effect (Part 4), and multiple dosing for up to 28 days (Part 5). Part 1, Part 2, and Part 5 are double blind; Part 3 and Part 4 are open-label. Note that Part 3, Part 4, and Part 5 may be conducted concurrently.
The single ascending dose (SAD) part of the study was randomized, double-blinded, and placebo controlled in healthy male and female subjects.
as §1
The amount of HTT mRNA was then evaluated by RT-PCR 6 hours after administration of Compound 1 on day 14.

“Also recorded” adds a separate entry of the source. Like-named read-outs stand apart in the source and are kept apart here.

As usually defined, the NOAEL is the highest tested level that showed no adverse finding.

`CC1(C)CC(n2nnc3cc(-c4ccc(-n5nccn5)cc4O)nnc32)CC(C)(C)N1` [Compound 1, 2-[3-(2,2,6,6-tetramethylpiperidin-4-yl)-3H-[1,2,3]triazolo[4,5-c]pyridazin-6-yl]-5-(2H-1,2,3-triazol-2-yl)phenol]: the “lowering in the amount of HTT protein” value in the series on HTT protein is given as “approximately 40%”. For the same compound, in series [1] (SAD and MAD portions), the dose-limiting toxicities entry was “no events considered to be dose-limiting toxicities”. In addition, in series [1] (any dose, SAD and MAD portions), the “laboratory abnormalities and ECG findings” value is “no clinically significant laboratory abnormalities or electrocardiogram (ECG) findings”. In addition, the safety and tolerability entry in series [1] (single doses 5 to 135 mg, multiple doses 15 and 30 mg up to 21 days) is “well-tolerated with no safety-related findings; also recorded: safe and generally well tolerated”. Also, the no-observed-adverse-effect level (NOAEL) in the series “Rat toxicology, NOAEL” ((male) rat, germ cell exfoliation in epididymis and testes, read-out: NOAEL (no observed adverse effect level)) is 6 mg/kg; in the series “Rat toxicology, NOAEL” (from rat NOAEL, read-out: human equivalent dose (HED) estimated from the NOAEL) it was 0.97 mg/kg. Moreover, the drug half-life result in series [2] (MAD cohort) is on record as “long drug half-life”. Moreover, the “Compound levels in the CSF compared with plasma” value in series [2] (healthy subjects, 30 mg daily dose) is given as “equal to or greater than levels observed in plasma”. Also, the “predicted percent full-length HTT mRNA decrease from baseline” value in the series with HTT mRNA [3] (10 mg QD and 20 mg QD, PK-PD compartment model) was 30 to 50%. Besides, the “predicted time for HTT mRNA to reach steady state” value in the series on HTT mRNA [3] (30 mg daily dose, model based on half-life) is given as “approximately 5 days”. For the same compound, the “predicted time for HTT protein steady state levels” value in series [4] is on record as “about 6 weeks”. Besides, the “Mean decrease in full-length HTT mRNA levels” value in the series on HTT mRNA [5] (15 mg) was 40%; with HTT mRNA [5] (30 mg) it was 60%. Moreover, in the series on HTT mRNA [5] (MAD cohort), the “maintenance of splicing following the last dose” value is recorded as “up to 72 hours”. In addition, the “HTT mRNA in whole blood” value with HTT mRNA [5] (MAD: 15 mg or 30 mg for 14 days, 6 hours after dose on day 14) was “dose-dependent lowering of HTT mRNA”; in the series on HTT mRNA [5] (SAD: 5, 15, 45, 90 or 135 mg, 24 hours after dose), “dose-dependent lowering of HTT mRNA”. Moreover, in the series on HTT mRNA [5] (Multiple Ascending Dose Study), the “time for HTT mRNA levels to reach steady state” value was in the range of 4 to 5 days. In the series with HTT mRNA [5] (SAD cohort, 24 hours after dose, even with higher concentrations), the “total amount of HTT mRNA” value is on record as “about 50 % of baseline”. For the same compound, the “persistence of HTT splicing effect post cessation of treatment” value in the series with HTT mRNA [5] (SAD cohorts) came out at 72 h. Moreover, the “HTT mRNA lowering (target level achieved)” value in the series with HTT mRNA [5] (lowest dose tested, both SAD and MAD cohorts) is 30-50%.
